Experimental data reported in article PMC3203990 (The FEBS journal, 2011).

Target: FtCCAP (Francisella tularensis class C acid phosphatase) (Francisella tularensis, UniProt Q5NH51)
Test: biochemical

FtCCAP (Francisella tularensis class C acid phosphatase), sequence (Q5NH51 22-247 limits assumed): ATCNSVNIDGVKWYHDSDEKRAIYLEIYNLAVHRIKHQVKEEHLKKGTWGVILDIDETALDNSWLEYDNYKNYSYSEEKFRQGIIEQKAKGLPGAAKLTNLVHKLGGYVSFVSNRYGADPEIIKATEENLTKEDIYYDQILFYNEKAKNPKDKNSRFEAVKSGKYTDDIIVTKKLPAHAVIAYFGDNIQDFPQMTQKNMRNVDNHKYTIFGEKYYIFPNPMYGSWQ

For `Nc1ncnc2c1ncn2[C@@H]1O[C@H](COP(O)(O)=S)[C@@H](O)[C@H]1O` [AMPS], the Ki was 300 ± 30 nM.
